Data published in patent publication US10981911B2, “Imidazopyrrolopyridine as inhibitors of the JAK family of kinases” (Janssen Pharmaceutica NV, priority 2016, dated 2021).
pIC50: −log10 of the molar value.

Legend:
Format in all cases: biochemical
[1] = target: JAK1-JH1JH2 (Homo sapiens (Human), UniProt P23458); assay: Enzymatic inhibition assay (RapidFire HTMS), JAK1; details: 12.5 μM ATP, 200 μM substrate; read-out: JAK1-JH2JH1 IC50
How it was run: (§1)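 Quenched with 0.5% TFA plus internal-standard peptide; phosphorylated product quantified by RapidFire C4 SPE–ESI-MS, 11-point 1:3 or 1:4 dilutions in duplicate.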

[2] = target: JAK2-JH1JH2 (Homo sapiens (Human), UniProt O60674); assay: Enzymatic inhibition assay (RapidFire HTMS), JAK2; details: 30 μM ATP, 40 μM substrate
Sequence of JAK2-JH1JH2 (O60674 532-1132): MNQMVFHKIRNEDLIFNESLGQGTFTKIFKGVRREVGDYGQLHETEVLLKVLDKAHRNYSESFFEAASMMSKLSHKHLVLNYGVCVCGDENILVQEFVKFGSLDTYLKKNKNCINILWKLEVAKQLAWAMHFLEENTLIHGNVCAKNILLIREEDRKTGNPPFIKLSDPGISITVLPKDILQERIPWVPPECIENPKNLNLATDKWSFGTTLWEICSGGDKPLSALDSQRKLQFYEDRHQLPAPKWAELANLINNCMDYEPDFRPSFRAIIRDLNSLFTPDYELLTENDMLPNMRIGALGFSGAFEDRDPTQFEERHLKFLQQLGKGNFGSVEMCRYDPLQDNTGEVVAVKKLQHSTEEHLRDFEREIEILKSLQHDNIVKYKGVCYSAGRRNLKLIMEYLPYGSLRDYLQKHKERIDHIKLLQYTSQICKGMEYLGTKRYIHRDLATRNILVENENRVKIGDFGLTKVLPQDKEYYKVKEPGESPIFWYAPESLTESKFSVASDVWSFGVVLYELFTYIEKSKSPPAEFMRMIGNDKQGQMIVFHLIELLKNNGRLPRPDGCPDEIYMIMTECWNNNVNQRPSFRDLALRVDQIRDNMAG
How it was run: as §1

[3] = target: JAK3-JH1JH2 (Homo sapiens (Human), UniProt P52333); assay: Enzymatic inhibition assay (RapidFire HTMS), JAK3; details: 150 μM ATP, 40 μM substrate
Sequence of JAK3-JH1JH2 (P52333 512-1124): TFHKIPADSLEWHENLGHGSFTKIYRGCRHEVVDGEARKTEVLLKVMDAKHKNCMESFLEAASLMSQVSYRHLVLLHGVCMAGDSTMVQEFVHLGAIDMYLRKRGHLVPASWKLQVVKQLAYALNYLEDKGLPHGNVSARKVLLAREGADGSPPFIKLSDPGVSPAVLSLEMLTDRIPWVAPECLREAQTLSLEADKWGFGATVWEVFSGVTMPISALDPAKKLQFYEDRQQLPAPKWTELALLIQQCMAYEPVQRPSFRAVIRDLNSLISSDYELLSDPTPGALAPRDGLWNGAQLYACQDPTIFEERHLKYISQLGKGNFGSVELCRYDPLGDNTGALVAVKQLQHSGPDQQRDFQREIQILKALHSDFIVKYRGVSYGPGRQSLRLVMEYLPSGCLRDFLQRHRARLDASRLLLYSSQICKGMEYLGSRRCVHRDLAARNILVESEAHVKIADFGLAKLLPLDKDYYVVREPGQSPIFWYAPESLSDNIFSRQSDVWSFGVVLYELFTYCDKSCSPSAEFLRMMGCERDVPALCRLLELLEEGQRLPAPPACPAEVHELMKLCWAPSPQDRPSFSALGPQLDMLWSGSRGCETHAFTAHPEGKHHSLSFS
How it was run: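 Compounds tested in duplicate over 11-point 1:3 or 1:4 dilution series; no-enzyme wells as negative control. After 45 min at 25 °C, TFA quench with internal standard, and phosphorylated product quantified by RapidFire–QTrap mass spectrometry relative to the uninhibited reaction.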

[4] = target: Tyk2-JH1JH2 (Homo sapiens (Human), UniProt P29597, C1142A/C936A); assay: Enzymatic inhibition assay (RapidFire HTMS), Tyk2; details: 50 μM ATP, 200 μM substrate
Sequence of Tyk2-JH1JH2 (P29597 580-1182 C936A/C1142A): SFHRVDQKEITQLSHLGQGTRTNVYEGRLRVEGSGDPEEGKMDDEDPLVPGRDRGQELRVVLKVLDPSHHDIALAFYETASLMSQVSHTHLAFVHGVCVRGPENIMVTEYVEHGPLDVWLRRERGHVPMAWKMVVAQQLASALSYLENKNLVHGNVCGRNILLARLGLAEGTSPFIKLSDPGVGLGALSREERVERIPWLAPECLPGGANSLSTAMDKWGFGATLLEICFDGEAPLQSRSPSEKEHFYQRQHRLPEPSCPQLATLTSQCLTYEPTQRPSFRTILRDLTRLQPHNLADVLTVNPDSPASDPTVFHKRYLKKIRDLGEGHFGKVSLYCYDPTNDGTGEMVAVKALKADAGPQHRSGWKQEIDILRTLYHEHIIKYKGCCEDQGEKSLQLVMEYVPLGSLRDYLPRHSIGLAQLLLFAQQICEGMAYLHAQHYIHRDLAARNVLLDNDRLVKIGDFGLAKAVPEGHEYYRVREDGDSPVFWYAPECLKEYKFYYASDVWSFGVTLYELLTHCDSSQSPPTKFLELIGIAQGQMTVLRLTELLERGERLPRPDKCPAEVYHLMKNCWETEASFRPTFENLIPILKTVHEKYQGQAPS
How it was run: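 Compounds were tested in duplicate as 11-point 1:3 or 1:4 DMSO dilutions (≤0.25% DMSO final) in 20 μL reactions at 25 °C for 90 min, with Tyk2 pre-incubated 30 min with 2 mM ATP. Reactions were quenched with TFA plus internal standard peptide, and phosphorylated product was quantified by RapidFire C4 SPE–ESI MS.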

Sequence of JAK1-JH1JH2 (P23458 574-1154): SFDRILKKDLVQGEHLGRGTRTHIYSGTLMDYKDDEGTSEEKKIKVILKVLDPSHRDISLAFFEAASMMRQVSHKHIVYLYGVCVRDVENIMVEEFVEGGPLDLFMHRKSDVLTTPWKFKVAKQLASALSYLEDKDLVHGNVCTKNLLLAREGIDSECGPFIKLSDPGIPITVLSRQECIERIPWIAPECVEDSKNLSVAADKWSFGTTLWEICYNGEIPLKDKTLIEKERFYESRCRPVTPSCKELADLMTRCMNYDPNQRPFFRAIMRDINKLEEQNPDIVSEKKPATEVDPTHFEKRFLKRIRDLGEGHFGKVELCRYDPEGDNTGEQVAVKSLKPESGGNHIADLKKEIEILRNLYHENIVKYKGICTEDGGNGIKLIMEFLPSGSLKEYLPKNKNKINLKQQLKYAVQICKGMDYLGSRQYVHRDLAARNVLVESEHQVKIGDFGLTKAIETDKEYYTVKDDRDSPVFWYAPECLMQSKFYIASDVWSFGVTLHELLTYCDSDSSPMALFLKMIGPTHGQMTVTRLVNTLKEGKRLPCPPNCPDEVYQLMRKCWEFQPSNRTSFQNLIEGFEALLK

SMILES	pIC50 [1]	pIC50 [2]	pIC50 [3]	pIC50 [4]
N#CC[C@H]1CC[C@H](n2c(-c3nn[nH]n3)nc3cnc4[nH]ccc4c32)CC1 [Ex. 63, 2-((1r,4r)-4-(2-(2H-Tetrazol-5-yl)imidazo[4,5-d]pyrrolo[2,3-b]pyridin-1(6H)-yl)cyclohexyl)acetonitrile]	9.52	8.66	7.24	7.72
CC1(C)CCC(NC(=O)Cc2nc3cnc4[nH]ccc4c3n2[C@H]2CC[C@H](CC#N)CC2)CC1 [Ex. 65, 2-(1-((1r,4r)-4-(Cyanomethyl)cyclohexyl)-1,6-dihydroimidazo[4,5-d]pyrrolo[2,3-b]pyridin-2-yl)-N-(4,4-dimethylcyclohexyl)acetamide]	9.52	8.15	7.09	7.93
N#CC[C@H]1CC[C@H](n2c(CC(=O)N3CCS(=O)(=O)CC3)nc3cnc4[nH]ccc4c32)CC1 [Ex. 67, 2-((1r,4r)-4-(2-(2-(1,1-Dioxidothiomorpholino)-2-oxoethyl)imidazo[4,5-d]pyrrolo[2,3-b]pyridin-1(6H)-yl)cyclohexyl)acetonitrile]	9.52	7.91	6.92	8.42
COCC/C(N)=N/OCc1nc2cnc3[nH]ccc3c2n1[C@H]1CC[C@H](CC#N)CC1 [Ex. 72, (Z*)—N-((1-((1r,4r)-4-(Cyanomethyl)cyclohexyl)-1,6-dihydroimidazo[4,5-d]pyrrolo[2,3-b]pyridin-2-yl)methoxy)-3-methoxypropanimidamide]	9.40	8.28	6.74	7.57
N#CC[C@H]1CC[C@H](n2c(CC(=O)N3CCC(CO)CC3)nc3cnc4[nH]ccc4c32)CC1 [Ex. 73, 2-((1r,4r)-4-(2-(2-(4-(Hydroxymethyl)piperidin-1-yl)-2-oxoethyl)imidazo[4,5-d]pyrrolo[2,3-b]pyridin-1(6H)-yl)cyclohexyl)acetonitrile]	9.40	7.70	6.70	8.20
CC1CC(C)CC(NC(=O)Cc2nc3cnc4[nH]ccc4c3n2[C@H]2CC[C@H](CC#N)CC2)C1 (stereo partly drawn) [Ex. 75, 2-(1-((1r,4r)-4-(Cyanomethyl)cyclohexyl)-1,6-dihydroimidazo[4,5-d]pyrrolo[2,3-b]pyridin-2-yl)-N-(3,5-dimethylcyclohexyl)acetamide]	9.40	8.47	7.21	8.04
N#CC[C@H]1CC[C@H](n2c(C3CCN(c4ccc(C#N)cc4)CC3)nc3cnc4[nH]ccc4c32)CC1 [Ex. 76, 4-(4-(1-((1r,4r)-4-(Cyanomethyl)cyclohexyl)-1,6-dihydroimidazo[4,5-d]pyrrolo[2,3-b]pyridin-2-yl)piperidin-1-yl)benzonitrile]	9.40	7.63	5.92	7.77
N#CC[C@H]1CC[C@H](n2c(CNS(=O)(=O)c3ccccc3)nc3cnc4[nH]ccc4c32)CC1 [Ex. 77, N-((1-((1r,4r)-4-(Cyanomethyl)cyclohexyl)-1,6-dihydroimidazo[4,5-d]pyrrolo[2,3-b]pyridin-2-yl)methyl)benzenesulfonamide]	9.40	7.40	5.72	7.65
N#CC[C@H]1CC[C@H](n2c(C(=O)NCC3(O)COC3)nc3cnc4[nH]ccc4c32)CC1 [Ex. 80, 1-((1r,4r)-4-(Cyanomethyl)cyclohexyl)-N-((3-hydroxyoxetan-3-yl)methyl)-1,6-dihydroimidazo[4,5-d]pyrrolo[2,3-b]pyridine-2-carboxamide]	9.40	8.68	7.05	8.39
Cc1cc(-c2nc3cnc4[nH]ccc4c3n2[C@H]2CC[C@H](CC#N)CC2)[nH]n1 [Ex. 81, 2-((1r,4r)-4-(2-(3-Methyl-1H-pyrazol-5-yl)imidazo[4,5-d]pyrrolo[2,3-b]pyridin-1(6H)-yl)cyclohexyl)acetonitrile]	9.40	8.43	6.93	8.22
N#CC[C@H]1CC[C@H](n2c(CNC(=O)c3ccc(C#N)cc3)nc3cnc4[nH]ccc4c32)CC1 [Ex. 82, 4-Cyano-N-((1-((1r,4r)-4-(cyanomethyl)cyclohexyl)-1,6-dihydroimidazo[4,5-d]pyrrolo[2,3-b]pyridin-2-yl)methyl)benzamide]	9.40	7.87	6.72	8.28

Second part, the molecule after the results:

pIC50 [1]	pIC50 [2]	pIC50 [3]	pIC50 [4]	SMILES
9.52	8.25	7.29	8.24	N#CC[C@H]1CC[C@H](n2c(CC(=O)Nc3cn[nH]c3)nc3cnc4[nH]ccc4c32)CC1 [Ex. 64, 2-(1-((1r,4r)-4-(Cyanomethyl)cyclohexyl)-1,6-dihydroimidazo[4,5-d]pyrrolo[2,3-b]pyridin-2-yl)-N-(1H-pyrazol-4-yl)acetamide]
9.52	8.60	7.72	8.55	CN1CCC(NC(=O)Cc2nc3cnc4[nH]ccc4c3n2[C@H]2CC[C@H](CC#N)CC2)CC1 [Ex. 66, 2-(1-((1r,4r)-4-(Cyanomethyl)cyclohexyl)-1,6-dihydroimidazo[4,5-d]pyrrolo[2,3-b]pyridin-2-yl)-N-(1-methylpiperidin-4-yl)acetamide]
9.52	8.09	6.75	7.88	N#CC[C@H]1CC[C@H](n2c(CC(=O)NCc3ccc(CO)cc3)nc3cnc4[nH]ccc4c32)CC1 [Ex. 68, 2-(1-((1r,4r)-4-(Cyanomethyl)cyclohexyl)-1,6-dihydroimidazo[4,5-d]pyrrolo[2,3-b]pyridin-2-yl)-N-(4-(hydroxymethyl)benzyl)acetamide]
9.70	8.47	7.27	8.48	COC(C)(C)CNC(=O)Cc1nc2cnc3[nH]ccc3c2n1[C@H]1CC[C@H](CC#N)CC1 [Ex. 71, 2-(1-((1r,4r)-4-(Cyanomethyl)cyclohexyl)-1,6-dihydroimidazo[4,5-d]pyrrolo[2,3-b]pyridin-2-yl)-N-(2-methoxy-2-methylpropyl)acetamide]
9.40	7.95	7.16	7.87	N#CC[C@H]1CC[C@H](n2c(CC(=O)NC3CC4CCC3C4)nc3cnc4[nH]ccc4c32)CC1 (stereo partly drawn) [Ex. 78, N-((1S,4R)-Bicyclo[2.2.1]heptan-2-yl)-2-(1-((1r,4r)-4-(cyanomethyl)cyclohexyl)-1,6-dihydroimidazo[4,5-d]pyrrolo[2,3-b]pyridin-2-yl)acetamide]
9.40	7.97	6.65	7.88	N#CC[C@H]1CC[C@H](n2c(CC(=O)NCc3ccc(OC(F)F)cc3)nc3cnc4[nH]ccc4c32)CC1 [Ex. 79, 2-(1-((1r,4r)-4-(cyanomethyl)cyclohexyl)-1,6-dihydroimidazo[4,5-d]pyrrolo[2,3-b]pyridin-2-yl)-N-(4-(difluoromethoxy)benzyl)acetamide]
9.40	8.39	7.52	8.03	N#CC[C@H]1CC[C@H](n2c(CC(=O)NC3CCSCC3)nc3cnc4[nH]ccc4c32)CC1 [Ex. 83, 2-(1-((1r,4r)-4-(Cyanomethyl)cyclohexyl)-1,6-dihydroimidazo[4,5-d]pyrrolo[2,3-b]pyridin-2-yl)-N-(tetrahydro-2H-thiopyran-4-yl)acetamide]
